# Test results: article PMC5308383 (2016)
# Key:
# [1] = system: CBSA-5335 (fluorophore/quencher-modified) (DNA, aptamer, C3 spacer abasic at 10 of strand 2) CTCCTTCAACGAAGTGGGTCTCCTTCAACGAAGTGGGTCTC/GAGACAAGGNGACAAGGAGT; assay: fluorophore/quencher assembly assay; conditions: 100 μM MgCl2
# [2] = system: 38-GC-21T (DNA, aptamer) GGGAGACAAGGAAAATCCTTTAACGAAGTGGGTCTCCC; assay: ITC; conditions: 20 μM aptamer, 500 μM cocaine titrant
# [3] = system: 38-GC (DNA, aptamer) GGGAGACAAGGAAAATCCTTCAACGAAGTGGGTCTCCC; assay: ITC; conditions: 20 μM aptamer, 500 μM cocaine titrant
# [4] = system: CBSA-5335 (fluorophore/quencher-modified) (DNA, aptamer, C3 spacer abasic at 10 of strand 2) CTCCTTCAACGAAGTGGGTCTCCTTCAACGAAGTGGGTCTC/GAGACAAGGNGACAAGGAGT; assay: fluorophore/quencher assembly titration, Hill fit; conditions: 100 μM MgCl2; 10 mM Tris-HCl, pH 7.4, room temperature; 1 μM each strand; nH 1.5; apparent; b21 prints 33 μM
# [5] = system: 38-GC-20A (DNA, aptamer) GGGAGACAAGGAAAATCCTACAACGAAGTGGGTCTCCC; assay: ITC; conditions: 20 μM aptamer, 500 μM cocaine titrant
# [6] = system: PSA (DNA, aptamer, C3 spacer abasic at 3 of strand 2) CTCCTTCAACGAAGTGGGTTCC/GGNACAAGGAG; assay: ITC, single-site fit; conditions: 100 μM MgCl2; 10 mM Tris-HCl, pH 7.4, 20 °C
# [7] = system: 38-GC-22G (DNA, aptamer) GGGAGACAAGGAAAATCCTTCGACGAAGTGGGTCTCCC; assay: ITC; conditions: 20 μM aptamer, 500 μM cocaine titrant
# [8] = system: 38-GC-22T (DNA, aptamer) GGGAGACAAGGAAAATCCTTCTACGAAGTGGGTCTCCC; assay: ITC; conditions: 20 μM aptamer, 500 μM cocaine titrant
# [9] = system: CBSA-M2 (DNA, aptamer, C3 spacer abasic at 10 of strand 2) CTCCTTCGACGAAGTGGGTTCCTTCAACGAAGTGGGTCTC/GAGACAAGGNACAAGGAG; assay: ATMND quenching assembly assay; conditions: 100 μM MgCl2; 10 mM Tris-HCl, pH 7.4; 1 μM each strand; 200 nM ATMND; cocaine tested at 250 μM
# [10] = system: LSA (DNA, aptamer, C3 spacer abasic at 10 of strand 2) CTCCTTCAACGAAGTGGGTTCCTTGTCTC/GAGACAAGGNACAAGGAG; assay: ATMND quenching assembly assay; conditions: 100 μM MgCl2; 10 mM Tris-HCl, pH 7.4; 1 μM each strand; 250 μM cocaine, additional 10% change; mostly pre-assembled
# [11] = system: CBSA-5325 (DNA, aptamer, C3 spacer abasic at 10 of strand 2) CTCCTTCAACGAAGTGGGTTCCTTCAACGAAGTGGGTCTC/GAGACAAGGNACAAGGAG; assay: ATMND quenching assembly assay; conditions: 100 μM MgCl2; 10 mM Tris-HCl, pH 7.4; 1 μM each strand; 200 nM ATMND; 250 μM cocaine, 72% quenching
# [12] = system: CBSA-5335-GT (fluorophore/quencher-modified) (DNA, aptamer, C3 spacer abasic at 10 of strand 2) CTCCTTCAATGAAGTGGGTCTCCTTCAACGAAGTGGGTCTC/GAGACAAGGNGACAAGGAGT; assay: fluorophore/quencher assembly titration, Hill fit; conditions: 100 μM MgCl2; 10 mM Tris-HCl, pH 7.4, room temperature; 1 μM each strand; nH 1.5; apparent
# [13] = system: 38-GC-20C (DNA, aptamer) GGGAGACAAGGAAAATCCTCCAACGAAGTGGGTCTCCC; assay: ITC; conditions: 20 μM aptamer, 500 μM cocaine titrant
# [14] = system: CBSA-5445 (DNA, aptamer, C3 spacer abasic at 11 of strand 2) CTCCTTCAACGAAGTGGGTTCTTCCTTCAACGAAGTGGGTCTC/GAGACAAGGANGAACAAGGAG; assay: ATMND quenching assembly assay; conditions: 100 μM MgCl2
# [15] = system: CBSA-5435 (DNA, aptamer, C3 spacer abasic at 11 of strand 2) CTCCTTCAACGAAGTGGGTCTTCCTTCAACGAAGTGGGTCTC/GAGACAAGGANGACAAGGAG; assay: ATMND quenching assembly assay; conditions: 100 μM MgCl2
# [16] = system: CBSA-M1 (DNA, aptamer, C3 spacer abasic at 10 of strand 2) CTCCTTCAACGAAGTGGGTTCCTTCGACGAAGTGGGTCTC/GAGACAAGGNACAAGGAG; assay: ATMND quenching assembly assay; conditions: 100 μM MgCl2; 10 mM Tris-HCl, pH 7.4; 1 μM each strand; 200 nM ATMND; cocaine tested at 250 μM
# [17] = system: CBSA-5325 (fluorophore/quencher-modified) (DNA, aptamer, C3 spacer abasic at 10 of strand 2) CTCCTTCAACGAAGTGGGTTCCTTCAACGAAGTGGGTCTC/GAGACAAGGNACAAGGAGT; assay: fluorophore/quencher assembly titration, Hill fit; conditions: 100 μM MgCl2; 10 mM Tris-HCl, pH 7.4, room temperature; 1 μM each strand; nH 1.1; apparent
# [18] = system: LSA (DNA, aptamer, C3 spacer abasic at 10 of strand 2) CTCCTTCAACGAAGTGGGTTCCTTGTCTC/GAGACAAGGNACAAGGAG; assay: fluorescence quenching; conditions: 100 μM MgCl2; 10 mM Tris-HCl, pH 7.4; 1 μM each strand; 200 nM ATMND; no cocaine; 75% quenching
# [19] = system: CBSA-5325 (DNA, aptamer, C3 spacer abasic at 10 of strand 2) CTCCTTCAACGAAGTGGGTTCCTTCAACGAAGTGGGTCTC/GAGACAAGGNACAAGGAG; assay: fluorescence quenching titration, Scatchard; conditions: 100 μM MgCl2; 10 mM Tris-HCl, pH 7.4; 200 nM ATMND; 1 mM cocaine present (cocaine-assembled aptamer)
compound,measurement,setting,value
CN1CCC[C@H]1c1cccnc1,binding,"[1]; 10% saliva, 10 mM Tris-HCl, pH 7.4, room temperature, tested at 50 μM",no
COC(=O)[C@H]1[C@@H](OC(=O)c2ccccc2)C[C@@H]2CC[C@H]1N2C,KD,[2],49.3 µM
same,KD,[3],2.60 µM
same,K 1/2,[4],36 µM
same,KD,[5],169 µM
same,KD,[6],2000 µM
same,binding,[7],no
same,KD,[8],169 µM
same,binding,[9],no
same,binding,[10],weak
same,binding,[11],yes
same,K 1/2,[12],125 µM
same,KD,[13],714 µM
same,binding,[14],yes
same,binding,[15],yes
same,binding,[16],no
same,K 1/2,[17],106 µM
CN1[C@H]2CC[C@@H]1[C@@H](C(=O)O)[C@@H](OC(=O)c1ccccc1)C2,binding,[1],no
Cc1nc2nc(N)ccc2c(C)c1C,binding,[18],yes
same,KD,[19],0.365 µM
COC(=O)C1=CC[C@@H]2CC[C@H]1N2C,binding,[1],no
CCOC(=O)[C@H]1[C@@H](OC(=O)c2ccccc2)C[C@@H]2CC[C@H]1N2C,binding,"[1]; 10% saliva, room temperature, 19% cross-reactivity at 50 μM, 3% at 5 μM",weak
